Data as given in ChEMBL document CHEMBL1687773 (Antimicrob Agents Chemother, 2010).
Calls of active or inactive are those of the source. The calls are words filed in the database; no cut-off is given here.

Assays:
[1] = tested on: Human immunodeficiency virus type 1 reverse transcriptase (Human immunodeficiency virus 1), Q72547 [Y181I]; assay: Inhibition of HIV1 histidine-tagged reverse transcriptase Y181I mutant activity by primer extension assay
[2] = tested on: Human immunodeficiency virus 1; assay: Ratio of EC50 for wild type HIV1 NL4-3 to EC50 for HIV1 NL4-3 harboring reverse transcriptase Y181I mutant; assay type: functional

With CCc1nn(CCO)c(CC)c1Oc1cc(C#N)cc(C#N)c1 [LERSIVIRINE] the inhibition [1] was “Active” and the “Ratio EC50” value [2] was 10.
